Here are results for 3 molecules from patent US20090054481A1 (priority 2003, published 2009).

Structures can show the parent of a compound that is named as a salt.

A short description of series [1]: Dissolution rate of micronized drug substance (background statement). In kind it is physicochemical. The settings on record: agglomerating drug substance.
For series [2] the following is noted: 25° C., cited from earlier work.
The conditions of series [3]: cited from earlier work.

With `CC(C)(C)NC(=O)[C@@H]1C[C@@H]2CCCC[C@@H]2CN1C[C@@H](O)[C@H](Cc1ccccc1)NC(=O)[C@H](CC(N)=O)NC(=O)c1ccc2ccccc2n1` [Micronized saquinavir mesylate, saquinavir mesylate], in series [1], the “dissolution rate (in words)” value was “slow dissolution rate”.
In the case of `CC(C)(C)NC(=O)[C@@H]1C[C@@H]2CCCC[C@@H]2CN1C[C@@H](O)[C@H](Cc1ccccc1)NC(=O)[C@H](CC(N)=O)NC(=O)c1ccc2ccccc2n1` [Saquinavir mesylate], the “solubility in simulated gastric fluid” value in series [2] (simulated gastric fluid) is 80 µg/mL. For the same molecule, the “solubility in simulated intestinal fluid” value in series [2] (simulated intestinal fluid) was “practically insoluble”.
On to `CC(C)(C)NC(=O)[C@@H]1C[C@@H]2CCCC[C@@H]2CN1C[C@@H](O)[C@H](Cc1ccccc1)NC(=O)[C@H](CC(N)=O)NC(=O)c1ccc2ccccc2n1` [saquinavir], for which, in series [3] (8 healthy volunteers, single 600 mg dose (3×200 mg capsules) following a high fat breakfast, CV 73%), the “Absolute bioavailability (average)” value is 4%. The “Absolute bioavailability (range)” value in series [3] (8 healthy volunteers, single 600 mg dose (3×200 mg capsules) following a high fat breakfast) was 1-9%. In addition, in series [3] (n=6, on average), the “24-hour AUC and Cmax after a higher calorie meal versus a lower calorie meal” value is reported as “two times higher”.
